{
  "source": "BindingDB's records for doi:10.1016/j.bbrc.2004.06.020",
  "about": "(Chosun University, 2004)",
  "experiment": "TP_TRANSPORTER: drug resistance (vincristine) in AML-2/D100 cells",
  "data": [
    {"smiles": "COc1cc(OC)c2c(=O)cc(-c3cc(OC)c(OC)c(OC)c3)oc2c1", "values": [
      {"measurement": "IC50", "value": 400, "unit": "nM"}
    ]},
    {"smiles": "COc1cc(-c2cc(=O)c3c(OC)c(OC)c(OC)cc3o2)cc(OC)c1OC", "values": [
      {"measurement": "IC50", "value": 900, "unit": "nM"}
    ]},
    {"smiles": "COc1ccc2c(=O)cc(-c3ccc(OC)c(OC)c3)oc2c1", "values": [
      {"measurement": "IC50", "value": 1200, "unit": "nM"}
    ]},
    {"smiles": "COc1ccc(-c2cc(=O)c3ccccc3o2)cc1OC", "values": [
      {"measurement": "IC50", "value": 1200, "unit": "nM"}
    ]},
    {"smiles": "COc1cc(-c2oc3cc(O)cc(O)c3c(=O)c2O)cc(OC)c1OC", "values": [
      {"measurement": "IC50", "value": 3200, "unit": "nM"}
    ]},
    {"smiles": "COc1ccc(-c2oc3cc(O)ccc3c(=O)c2O)cc1OC", "values": [
      {"measurement": "IC50", "value": 6300, "unit": "nM"}
    ]},
    {"smiles": "COc1ccc(-c2cc(=O)c3c(OC)cc(OC)cc3o2)cc1", "note": "[TRIMETHYLAPIGENIN]", "values": [
      {"measurement": "IC50", "value": 1400, "unit": "nM"}
    ]},
    {"smiles": "O=c1cc(-c2ccc(O)c(O)c2)oc2cc(O)cc(O)c12", "note": "[2-(3,4-dihydroxyphenyl)-5,7-dihydroxy-4H-chromen-4-one]", "values": [
      {"measurement": "IC50", "value": 19600, "unit": "nM"}
    ]},
    {"smiles": "COc1ccc2oc(-c3ccc(OC)c(OC)c3)c(OC)c(=O)c2c1", "values": [
      {"measurement": "IC50", "value": 1900, "unit": "nM"}
    ]},
    {"smiles": "COc1ccc(-c2cc(=O)c3c(OC)c(OC)c(OC)cc3o2)cc1OC", "note": "[2-(3,4-dimethoxyphenyl)-5,6,7-trimethoxy-4H-chromen-4-one]", "values": [
      {"measurement": "IC50", "value": 3200, "unit": "nM"}
    ]}
  ]
}
